Earlier results as cited in PMC11390726, “Automated design of multi-target ligands by generative deep learning” (Nature Communications, 2024).
pEC50, pIC50: −log10 of the molar value.

Key:
Design in all cases: method as in earlier work
AT1 = target: T1, AT1 (Homo sapiens, UniProt P30556); conditions: fine-tuning set; BindingDB; read-out: potency on target (IC50 for AT1); cited from earlier work
T1 construct: expressed in transfected cells
T1 sequence (P30556 1-359): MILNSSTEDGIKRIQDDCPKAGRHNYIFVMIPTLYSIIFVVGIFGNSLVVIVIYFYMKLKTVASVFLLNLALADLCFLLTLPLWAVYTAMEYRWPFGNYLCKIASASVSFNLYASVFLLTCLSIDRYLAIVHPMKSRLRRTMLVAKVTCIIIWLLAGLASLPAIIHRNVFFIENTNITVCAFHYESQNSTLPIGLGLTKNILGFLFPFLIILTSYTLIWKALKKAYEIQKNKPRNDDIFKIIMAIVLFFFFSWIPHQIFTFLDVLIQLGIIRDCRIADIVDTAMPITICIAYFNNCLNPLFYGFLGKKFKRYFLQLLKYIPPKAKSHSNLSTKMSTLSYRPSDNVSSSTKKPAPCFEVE

PPARδ = conditions: fine-tuning set; BindingDB; read-out: potency on target (EC50 for PPARδ); cited from earlier work
THRβ = conditions: fine-tuning set; BindingDB; read-out: potency on target (EC50 for THRβ); cited from earlier work

## COc1ccc2c(c1OCc1ccccc1)CC(C(=O)O)N(C(=O)C(c1ccccc1)c1ccccc1)C2 (stereo not shown)
AT1
  pIC50: 6.00

## CCCCc1cnc(C(=O)O)n1Cc1ccc(-c2ccccc2C)cc1
AT1
  pIC50: 8.52

## CCO[C@H](COc1ccc(C(F)(F)F)cc1)CSc1ccc(OCC(=O)O)c(C)c1
PPARδ
  pEC50: 8.70

## CC(C)c1onc(-c2c(Cl)cccc2Cl)c1COc1ccc(CNc2ccc(CC(=O)O)cc2)c(Cl)c1
PPARδ
  pEC50: 5.70

## O=C(O)Cc1cc(Cl)c(Oc2ccc(O)c(C(=O)NCC(c3ccccc3)c3ccccc3)c2)c(Cl)c1
THRβ
  pEC50: 9.30

## CCCCc1ncc(/C=C(\Cc2cccs2)C(=O)O)n1Cc1ccc(C(=O)O)cc1
AT1
  pIC50: 8.70
